The assay concerns the target T1, rat lenses aldose reductase (Rattus norvegicus, UniProt P07943).
T1 construct: The supernatant fraction of the rat lens homogenate was prepared in accordance with the procedure described in literature; from tissue; host or cells: lens of SD rats
The assay can be described thus: Inhibitory effect on rat lens aldose reductase activity in vitro. The class given is biochemical. The conditions noted are these: for IC50: rat lens aldose reductase, DL-glyceraldehyde substrate, NADPH decrease at 340 nm. The procedure: Crude aldose reductase (AR) was prepared as follows: rat lense were removed from SD rats weighing 250-280 g and frozen until use. The supernatant fraction of the rat lens homogenate was prepared in accordance with the procedure described in literature (Hayman, S. & Kinoshita, J. H.; J. Biol. Chem., 240, pp 877-882, 1965). Partially purified enzyme with a specific activity of 6.5 U/mg was routinely used to rest enzyme inhibition.
(2) Measurement of Aldose Reductase Activity AR activity was assayed spectrophotometrically by measuring the decrease in absorption of NADPH at 340 nm over a 5 min with DL-glyceraldehyde as a substrate (Sato, S and Kador, P. F., Biochem. Pharmacol., 40, pp 1033-1042, 1990). Each 1.0 ml of cuvette containing equal units of enzyme, 0.10M sodium phospate buffer (pH 6.2), 0.3 mM NADPH with or without 10 mM substrate and the enzyme inhibitor. The concentration of inhibitors giving 50% inhibition of enzyme activity (IC50) was calculated from the lease-squares regression line of the logarithmic concentration plotted against the remaining activity.

Like-named read-outs stand apart in the source and are kept apart here.

The molecule `O=C(O)CC1(CC(=O)O)CCCC1` [TMG, tetramethylene glutaric acid] had an IC50 of 0.63 µg/mL. Besides, for the setting “Concentration 0.1 (unit not given)”, the “inhibition (%)” value was found to be 29.8%. In addition, the “inhibition (%)” value (Concentration 1 (unit not given)) came to 53.7%. Besides, the “inhibition (%)” value (Concentration 10 (unit not given)) is on record as 82.1%. Regarding `O=Cc1ccc(O)c(O)c1` [Protocatechualdehyde, protocatechualdehyde], the 50% inhibitory concentration (IC50) (read-out: IC50 (converted)) is 5.21 µM. As to `CCCCCCCC[C@@H](O)C(=O)N[C@@H](CO[C@@H]1OC(CO)[C@@H](O)C(O)C1O)[C@H](O)/C=C/CC/C=C(\C)CCCC` (stereo partly shown) [Cerebroside], where the note is “read-out: IC50 (converted)”, the half-inhibitory concentration (IC50) was 52.3 µM. On to `O=C(O)c1cc(O)ccc1O` [2,5-dihydroxybenzoic acid, 2,5-dihydroxy benzoic acid], for which the concentration for half-maximal inhibition (IC50) (read-out: IC50 (converted)) is 256 µM.

As usually defined, the IC50 is the point on the concentration scale where inhibition reaches its midpoint.

The record behind these values is patent publication US7595055B2, “Pharmaceutical composition comprising an extract or compounds isolated from Elfvingia applanata for the prevention and the treatment of diabetes and diabetic complications” (priority 2003, dated 2009).
